Measurements taken from patent US10034853B2, “PPAR α/γ dual agonist and its application” (Shanghai University of Traditional Chinese Medicine, priority 2013, dated 2018).
Entries after “also recorded” stand apart in the source; their conditions may differ. Like-named read-outs stand apart in the source and are kept apart here.

What was measured:
[1] = biological target: T1, PPAR γ (Mus musculus, UniProt P37238); test: Dual-luciferase reporter gene assay, PPAR γ transcriptional activity in 293T cells; type: cell-based; settings: for transcription activity on PPAR γ relative to compound A: 293T reporter assay
T1 construct: pCMX-Gal-mPPAR γ LBD plasmids; expressed in transfected cells; host or cells: 293T cells (ATCC)
T1 sequence (P37238 238-503 limits assumed): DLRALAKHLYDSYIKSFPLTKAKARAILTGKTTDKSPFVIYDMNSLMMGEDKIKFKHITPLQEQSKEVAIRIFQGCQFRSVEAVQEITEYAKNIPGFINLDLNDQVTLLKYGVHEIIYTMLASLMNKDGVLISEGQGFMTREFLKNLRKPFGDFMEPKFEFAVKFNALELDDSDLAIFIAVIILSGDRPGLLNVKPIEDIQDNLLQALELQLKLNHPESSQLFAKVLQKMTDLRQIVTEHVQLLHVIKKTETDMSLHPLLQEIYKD
Protocol: Reporter gene assay was used to detect the impacts of the compounds A, B and C on the transcriptional activities of PPAR γ and PPAR α. The inventors used the PPAR-α, α-LBD, γ and γ-LBD plasmids to detect the impacts of bavachinin on transcription activities of these two PPAR subtype. All the transfections were added to 293T cells (ATCC) overnight and then removed. The positive agonists or the test compounds were diluted in fresh media, and then added into the cells. After incubating for another 24 hours, the cells were harvested to detect luciferase activity.
293T cells were cultured in Dulbecco's modified Eagle's medium (DMEM) with 10% fetal bovine serum and 1% Penicillin/Streptomycin anti-DMEM high glucose medium at 37° C. and 5% CO2. 293T cells in log phase were seeded into 48-well plate with the cell density of 1×10^5˜2×10^5 cells/mL.
(§1) pCMX-Gal-mPPAR γ LBD plasmids, Gal4 reporter vector MH100×4-TK-Luc recombinant plasmids and renilla luciferase internal reference plasmids; PPAR α-LBD plasmids; PPAR γ plasmids; PPAR α plasmids.
When the cells grew to a density of 50 to 80% after seeded in plate overnight, it's good to carry out the transfection. All the transfections, which included 10 μg of total plasmids and 15 μL FuGENE-HD transfection reagent per mL of DMEM, were placed at room temperature for 15 minutes and then added to 293T cells (ATCC) overnight and then removed.
After incubating overnight, the compound A or B or C or positive PPAR γ/α agonists rosiglitazone (as the specific agonistic ligand of PPAR γ) or WY14643 (as the specific agonistic ligand of PPAR α) with different concentrations diluted by complete medium (2, 5, 10, 25, 50 μmol/L) were added into cells. The final concentration of positive agonists was 20 μmol/L).
(§2) After 24 hours, cells were washed twice with PBS to remove the remaining cell culture medium; 65 μL lysis buffer was added into each well and oscillated by the shaker for 15 minutes until cell lysis was complete. Finally the cell lysate was transferred into a 1.5 mL centrifuge tube; The cell lysate was centrifuged at 5000 rpm for 5 minutes and then 10 μL supernatant was taken to a new centrifuge tube for testing.
(§3) We conducted the luciferase reporter assay using Dual-Luciferase Reporter Assay System (Promega, USA). The transfection efficiency was normalized using the internal reference renilla luciferase activity. All transfection experiments were independently repeated for at least three times, with each experimental group having at least two deputy holes.
(§4) The Bio-Tek, Synergy HT multifunctional microplate reader was used to detect the fluorescence intensity of firefly and renilla. After normalizing via the internal reference renilla luciferase activity, the relative luciferase activity was expressed by the ratio of the fluorescence intensity of firefly luciferase and renilla luciferase.
(§5) Data were expressed as mean±standard error of mean (SEM). One-way ANOVA was used to analyze statistically differences between groups with LSD test for multiple comparisons using SPSS 16.0. The EC50 values were calculated using GraphPad Prism 5.0. A P value≤0.05 was regarded as statistically significant different.

[2] = biological target: T2, PPAR α (Homo sapiens, UniProt Q07869); test: Dual-luciferase reporter gene assay, PPAR α transcriptional activity in 293T cells; type: cell-based; settings: for EC50: 293T cells, luciferase reporter, 24 hours incubation; for transcription activity on PPAR α relative to compound A: 293T reporter assay
T2 construct: PPAR α-LBD plasmids; expressed in transfected cells; host or cells: 293T cells (ATCC)
T2 sequence (Q07869 239-466 limits assumed): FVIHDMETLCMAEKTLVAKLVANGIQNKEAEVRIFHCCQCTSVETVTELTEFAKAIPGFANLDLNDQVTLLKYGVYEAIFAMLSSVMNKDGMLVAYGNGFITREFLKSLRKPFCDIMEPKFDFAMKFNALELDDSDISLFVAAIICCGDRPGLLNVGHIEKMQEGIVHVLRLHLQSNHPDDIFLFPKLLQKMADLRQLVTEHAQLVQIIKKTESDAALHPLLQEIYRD
Protocol: The inventors used the PPAR-α, α-LBD, γ and γ-LBD plasmids to detect the impacts of bavachinin on transcription activities of these two PPAR subtype. […] The positive agonists or the test compounds were diluted in fresh media, and then added into the cells. After incubating for another 24 hours, the cells were harvested to detect luciferase activity.
as §1
When the cells grew to a density of 50 to 80% after seeded in plate overnight, it's good to carry out the transfection.
The final concentration of positive agonists was 20 μmol/L).
as §2, §3, §4, §5

[3] = system: PPAR α/γ target genes in HepG2 cells; test: Real-time PCR of PPAR α/γ target genes in HepG2 cells; type: cell-based; settings: 24 hours, 25 μM (stated for compound A); for expression of PPAR α/γ target genes (GLUT4, CD36, LPL, Fasn, ACO): β-actin reference
Protocol: Used Real-time fluorescence quantitative PCR (Real-time PCR) to detect how the compounds A, B and C regulate the expression of PPAR γ/α-related target genes in liver HepG2 cells.
HepG2 cells was grown in Dulbecco's modified Eagle's medium (DMEM, HyClone) with 10% fetal bovine serum (FBS, HyClone) and 1% Penicillin/Streptomycin (Gibco) at 37° C. and 5% CO2. HepG2 cells at logarithmic growth phase were plated in 12-well plates with the cell density was 5×10^4 cells/mL, and then were treated by compound A for 24 hours. Quantitative PCR analysis was performed using β-actin as an endogenous reference.
When the density of HepG2 cells was grown about 60%, compound A (dissolved in DMSO as a stock solution) diluted with complete medium was added into cells. The final concentration was 25 μM (μmol/L).
After 24 hours, total RNA of treated HepG2 cells was isolated using TRIzol reagent (Takara, Japan) according to the manual.
The total RNA was reversely transcribed to cDNA applying the reverse transcription kit (Thermo, Mass., USA). We established 20 μL reverse transcription reaction system according to Table 2. The reaction system was mixed and placed at room temperature (25° C.) for 5 minutes, incubated at 42° C. for 1 hour, incubated at 70° C. for 5 minutes. cDNA was stored at −20° C.
All primers were designed by the Prime 3.0 software. Briefly, after an initial denaturation at 95° C. for 10 minutes, the cDNA was amplified by 40 cycles of PCR (95° C., 15 seconds; 60° C., 60 seconds). All experiments were repeated at least three times independently.

[4] = system: db/db mice; test: Blood glucose and glucose tolerance in db/db mice; type: in vivo; settings: for reduction of fasting blood glucose compared with vehicle: after 6 days treatment, intragastric
Protocol: Mice were fasted 8 hours before subjected to a dose of 1 g glucose per kg body weight. Blood was taken from tail and measured at 0, 15, 30, 60 and 90 minutes. The data were expressed with means±SE, n=9 for each group.
The db/db mice with leptin receptor mutation begin to show the symptoms of obesity, hyperlipidemia, insulin resistance, hyperglycemia and others at 4 weeks. This is an ideal kind of mice model for obese diabetic mice.
The db/db mice were kept in polycarbonate cages under regulated temperature (22-23° C.) and controlled humidity (50%-60%) with 12-hour light/12-hour dark cycle. All the mice were allowed to adapt to the standard housing conditions. Mice and food were weighed regularly to investigate the changes in body weight and food intake.
During the experimental period, the eight-week old db/db mice were treated with water and a normal standard cylindrical diet. […] An intraperitoneal glucose tolerance test (IPGTT) was carried out after one week of treatment. Mice were fasted 8 hours before subjected to a dose of 1 g glucose per kg body weight. Blood was taken from tail at 0, 15, 30, 60, and 90 minutes. After 11 days of treatment, 0.75 U/kg body weight of insulin was injected intraperitoneally to perform intraperitoneal insulin tolerance test (IPITT). Blood was taken from tail at 0, 15, 30, 60, 90 and 120 minutes. After 20 days, all the db/db mice were anaesthetized by pentobarbital sodium after 8-hour fast. Blood and tissues were collected and stored at −80° C. for the further analysis.

[5] = system: 3T3-L1 cells; test: 3T3-L1 preadipocyte differentiation (oil red O staining); type: cell-based; settings: for adipocyte differentiation activity relative to compound A: 25 μM vs compound A at 5 μM
Protocol: 3T3-L1 fibroblast cell line is widely used for adipocyte differentiation models. […] For adipocyte differentiation, 3T3-L1 cells were seeded into 12-well plate to full confluence for 2 days and then incubated with completed medium containing 10 μg/mL human insulin (Sigma-Aldrich), 1 μM dexamethasone (Sigma-Aldrich) and the test compounds at 37° C. and 7.5% CO2. After 2 days of induction, the medium was replaced with a maintenance medium (completed medium including 10 μg/mL insulin and the test compounds) for additional 2 days (Day 0-Day 2). Thereafter, the medium was refreshed with fresh medium with the test compounds for 4 days (Day 2-Day 6). The test compounds dissolved in dimethylsulfoxide (DMSO) was diluted by the completed medium (final DMSO concentration, 0.1%) at indicated concentration. rosiglitazone was used as a positive compound. The 3T3-L1 cells were washed with PBS twice, fixed with 10% formalin at room temperature for 10 minutes and then stained with oil red O (Sigma-Aldrich, St. Louis, Mo.) at 37° C. for 30 minutes. The pictures were taken using an Olympus microscope (Tokyo, Japan).

[6] = system: diet-induced obese (dio) C57BL/6J mice; test: Lipid disorders in diet-induced obese (dio) mice; settings: for effect on food intake / reduction of serum triglyceride (TG) levels compared to HFD group / effect on body weight: 3-week treatment; for reduction of serum triglyceride (TG) levels compared to HFD group: compound A 2 g per kg HFD; for effect on body weight: vs HFD group
Protocol: For the therapy study, the six-week old female C57BL/6J mice were fed with high-fat diet (HFD, 60% of calories from fat) for 12 weeks to induce obesity and insulin resistance (DIO). The mice were divided into 3 groups according to body weight and fasting blood glucose (n=9, 7, 7, 7). […] After 21 days of dosing, we took blood from heart of anaesthetized fasted 10-hour mice. Tissues were collected and stored at −80° C.
Serum was used for all the analysis of blood parameters.

[7] = 293T cells, luciferase reporter, 24 hours incubation, read-out: EC50 (μM) PPAR γ
[8] = 100 mg/kg/d stated for compound A

| Compound | EC50 [1, 7] | transcription activity on PPAR γ relative to compound A [1] | EC50 ([2]; read-out: EC50 (μM) PPAR α) | transcription activity on PPAR α relative to compound A [2] | expression of PPAR α/γ themselves [3] | expression of PPAR α/γ target genes (GLUT4, CD36, LPL, Fasn, ACO) [3] | reduction of fasting blood glucose compared with vehicle [4, 8] | adipocyte differentiation activity relative to compound A ([5]; 3T3-L1 cells) | effect on food intake [6] | reduction of serum triglyceride (TG) levels compared to HFD group [6] | effect on body weight [6] | other results |
| --- | --- | --- | --- | --- | --- | --- | --- | --- | --- | --- | --- | --- |
| COc1cc2c(cc1CC=C(C)C)C(=O)CC(c1ccc(OC(C)=O)cc1)O2 (stereo not drawn) [compound C] | 12.3 µM | less than that of compound A | 12.9 µM | less than that of compound A | did not effect | significantly increased | ~8% | nearly equal to the activity of compound A at 5 μM | without affecting | 12% | without affecting |  |
| CC(=O)Oc1ccc(C2CC(=O)c3cc(CC=C(C)C)c(OC(C)=O)cc3O2)cc1 (stereo not drawn) [compound B] | 18.8 µM | less than that of compound A | 28.5 µM | less than that of compound A | did not effect | significantly increased | about 10% | nearly equal to the activity of compound A at 5 μM | without affecting | 20% | without affecting |  |
| COc1cc2c(cc1CC=C(C)C)C(=O)C[C@@H](c1ccc(O)cc1)O2 [compound A, bavachinin] |  |  |  |  | did not effect | significantly increased | about 20% |  | without affecting; also recorded: did not affect | around 23% | without affecting; also recorded: did not increase | EC50 [1]: 8.6 µM; PPAR γ transactivation compared with rosiglitazone (ROS) ([1]; compound at 25 μM vs rosiglitazone at 20 μM): nearly equal to PPAR γ agonist rosiglitazone (ROS) at 20 μM; EC50 ([2]; EC50 (μM) PPAR α): 17.3 µM; PPAR α transactivation compared with full agonist WY14643 ([2]; WY14643 final concentration 20 μmol/L): more transactivation; glucose tolerance (IPGTT) ([4]; 100 mg/kg/d, 1 g/kg glucose after 8 hours fast): improved; 3T3-L1 adipocyte differentiation ([5]; 1 μM, with insulin and dexamethasone, 6 days, oil red O): induced 3T3-L1 cell differentiation and lipid droplets formation; 3T3-L1 adipocyte differentiation ([5]; 10 μM, with insulin and dexamethasone, 6 days, oil red O): almost fully differentiated; 3T3-L1 adipocyte differentiation ([5]; 25 μM, with insulin and dexamethasone (FIG. 5C)): induced to differentiate into adipocytes; potency on adipocyte differentiation relative to rosiglitazone ([5]; 3T3-L1 cells): as potent as rosiglitazone; serum TG levels in contrast to HFD group ([6]; FIG. 6D): significantly reduced |
| CN(CCOc1ccc(CC2SC(=O)NC2=O)cc1)c1ccccn1 (stereo not drawn) [rosiglitazone, reference compound] |  |  |  |  |  |  |  |  |  |  |  | reduction of fasting blood glucose compared with vehicle ([4]; rosiglitazone 5 mg/kg/d): 5% |
